Laboratory results published in patent publication US20110319463A1, “PREVENTIVE OR THERAPEUTIC AGENTS FOR OPTIC NERVE DISORDERS COMPRISING 4,6-DICHLORO-1H-INDOLE-2-CARBOXYLIC ACID DERIVATIVES OR SALTS THEREOF AS ACTIVE INGREDIENTS” (Saten Pharamaceuticals Co., Ltd., priority 2009, published 2011).

Key:
Assay type in all cases: in vivo
[1] = tested on: neurofilament light chain (NFL) expression level in the retinal tissue; experiment: NMDA-induced rat retinal disorder model, quantitative PCR evaluation of NFL expression after intravitreous administration; conditions: 10 nmol NMDA mixed with 15 nmol/eye compound intravitreously, retina isolated 1 day after, NFL corrected by GAPDH, non-treatment group = 100%, NMDA group = 0%
Protocol: In the NMDA-induced rat retinal disorder model, the efficacy of the test compounds were evaluated using as an index the expression level in the retinal tissue of the neurofilament light chain (hereinafter referred to also as “NFL”) which is one of major constituents of the optic nerve axon and is considered to be important in maintaining the morphology of the optic nerve axon. The rat 1 day after the intravitreous administration of NMDA was treated with a 100 mg/kg sodium pentobarbital injection solution by an intraperitoneal administration to accomplish a systemic anesthesia and then the eyeballs were enucleated, and the retina was isolated. […] RR037B). In accordance with the instruction attached to QuantiTect Multiplex PCR Kit (1000) (QIAGEN, catalog No. 204545), QuantiTect Multiplex PCR Master Mix, the synthesized cDNA, the primers/probe for NFL (Sigma, “Ordermade”) and the primers/probe for glycerylaldehyde 3-phosphate dehydrogenase (hereinafter referred to also as “GAPDH”) (Applied Biosystems, Catalog No. 4352338E) were mixed, and a quantitative PCR machine (Applied Biosystems, Catalog No. 7500-03) was employed to conduct a PCR reaction, whereby measuring the expression levels of NFL and GAPDH. From the NFL and GAPDH expression levels thus obtained, a relative NFL expression level was calculated by correcting the NFL expression level based on the housekeeping gene GAPDH expression level in accordance with Equation 2. […] Each group included 1 animal (2 eyeballs). % Relative NFL expression level=(NFL expression level/GAPDH expression level) [Equation 2] % NFL recovery=(EX−EO)/(EP−EO)×100 [Equation 3] wherein EP is a relative NFL expression level in the non-treatment group, EO is a relative NFL expression level in the group of 10 nmol intravitreous NMDA administration and EX is a relative NFL expression level in the group of intravitreous administration of 10 nmol NMDA mixed with each compound. 5 μL of an NMDA solution dissolved in a 30% (v/v) DMSO-containing purified water (10 nmol as NMDA) was administered intravitreously. […]

[2] = tested on: cell count in the retinal ganglion cell layer; experiment: NMDA-induced rat retinal disorder model, retinal section evaluation (GCL cell count) after oral administration; conditions: 10 nmol NMDA intravitreously, 30 mg/kg orally twice a day for 3 days, eyeballs enucleated 3 days after NMDA, non-treatment group = 100%, NMDA + base = 0%
Excerpt: A NMDA-induced rat retinal disorder model (Invest. Ophthalmol. Vis. Sci., 2003; 44:385-392) employed widely as an optic nerve disorder model was employed to evaluate the usefulness (retinal nerve cell death inhibiting effect) of the present compound.
A rat [Slc:SD, male, about 7 week-old) was allowed to inhale a gas containing 3 to 4% (v/v) vaporized isoflurane at a rate of 1 to 1.5 L air/min to accomplish a systemic introducing anesthesia, followed by a maintaining anesthesia with 2 to 3% (v/v) isoflurane. Thereafter, 5 μl of a solution of NMDA (Sigma, catalog No. M3262) dissolved at 2 mmol/L in a phosphate buffer (hereinafter referred to also as “PBS”) was given intravitreously (10 nmol as NMDA).
The rat 3 days after the intravitreous administration of the NMDA solution was treated with a 100 mg/kg sodium pentobarbital injection solution by an intraperitoneal administration to accomplish a systemic anesthesia and then the eyeballs were enucleated. The enucleated eyeballs were fixed in a 25%(w/v) glutaraldehyde: 10% (w/v) neutral buffered formalin=1:9 mixture. The fixed eyeballs were embedded with a paraffin and then sliced into retinal sections (3 μm in thickness), which were then subjected to a hematoxylin and eosin staining. Eight retinal sections were taken per eyeball at intervals of 45 μm so that the optic nerve papilla was included. Among these 8 sections, 3 sections were selected randomly, and a selected section was photographed for the retina of 700 to 900 μm in width with its center being located about 1.25 mm from the optic nerve papilla, using which the cell count in the retinal ganglion cell layer (hereinafter referred to also as “GCL cell count”) was calculated (average value). From the resultant GCL cell count, a % GCL cell count reduction inhibition of each test substance was calculated according to Equation 1 while assigning 100% to the non-treatment group and 0% to a group of 10 nmol NMDA given intravitreously+base given orally. Each group included 4 animals (7 to 8 eyeballs).
% GCL cell count reduction inhibition=(NX−NO)/(NU−NO)×100 [Equation 1] […]

[3] = Body weight evaluation in NMDA-induced rat retinal disorder model after oral administration; conditions: 10 nmol NMDA intravitreously, 30 mg/kg orally twice a day for 3 days; for Weight gain (average): from day of NMDA administration to eyeball enucleation, non-treatment group 14.1
Protocol: Over a period from the day of the intravitreous NMDA administration through the eyeball enucleation, each individual animal was weighed once a day. Based on the body weight of the individual animal on the day of the intravitreous NMDA administration, the difference from the body weight on the day of the eyeball enucleation was calculated and the weight gain of each individual animal was calculated (average value). Each group included 4 animals. 5 μL of an NMDA solution dissolved in PBS (10 nmol as NMDA) was administered intravitreously. A 0.5% (w/v) aqueous solution of methyl cellulose was given by a repetitive oral administration twice a day in a volume of 10 mL/kg for 3 days from the day of the intravitreous NMDA administration until 2 days later. On the day of the intravitreous NMDA administration, a 0.5% (w/v) aqueous solution of methyl cellulose was given orally two times which were about 1 hour before the intravitreous NMDA administration and 1 to 2 hours. 5 μL of an NMDA solution dissolved in PBS (10 nmol as NMDA) was administered intravitreously. Each test compound suspended in 0.5% (w/v) methyl cellulose solution was given at a dose of 30 mg/kg by a repetitive oral administration twice a day in a volume of 10 mL/kg for 3 days from the day of the intravitreous NMDA administration until 2 days later. On the day of the intravitreous NMDA administration, each test compound suspended in 0.5% (w/v) methyl cellulose solution was given orally at a dose of 30 mg/kg two times which were about 1 hour before the NMDA administration and 1 to 2 hours. As a control compound, memantine was employed. 5 μL of an NMDA solution in PBS (10 nmol as NMDA) was administered intravitreously. Memantine dissolved in 0.5% (w/v) methyl cellulose solution was given at a dose of 30 mg/kg by a repetitive oral administration twice a day in a volume of 10 mL/kg for 3 days from the day of the intravitreous NMDA administration until 2 days later. On the day of the intravitreous NMDA administration, memantine dissolved in 0.5% (w/v) methyl cellulose solution was given orally at a dose of 30 mg/kg two times which were about 1 hour before the NMDA administration and 1 to 2 hours.

Row | Compound | % NFL Recovery (%, average) [1] | % Inhibition of GLC cell count reduction [2] | Weight gain compared with the non-treatment group (in words) [3] | Weight gain (average) [3]
1 | O=C(/C=C/c1c(C(=O)O)[nH]c2cc(Cl)cc(Cl)c12)Nc1ccccc1 [Compound A′, Sodium (E)-4,6-dichloro-3-(3-oxo-3-(phenylamino)-1-propenyl)-1H-indole-2-carboxylate] | 86.6% | 17.0% | weight gain almost equivalent to that in the non-treatment group | 12.6
2 | O=C(O)c1[nH]c2cc(Cl)cc(Cl)c2c1/C=C1\CCN(c2ccccc2)C1=O [Compound B′, sodium (E)-4,6-dichloro-3-((2-oxo-1-phenyl-3-pyrrolidinylidene)methyl)-1H-indole-2-carboxylate] | 80.7% | 14.8% | weight gain almost equivalent to that in the non-treatment group | 14.0
3 | CC12CC3CC(C)(C1)CC(N)(C3)C2 [memantine, reference compound] | 33.6% | 20.7% | inhibited the weight gain | −3.6
